Measurements reported in ChEMBL document CHEMBL5608167, “Nanomaterials-based advanced systems for photothermal / photodynamic therapy of oral cancer” (2024).

What was measured:
HeLa = test: Antitumor activity against human HeLa cells xenografted in mouse model assessed as tumor growth inhibition at 20 mg/kg treated for 10 days relative to control; type: functional; design: scale not given: the % may be the effect or the level left; details: time 10 day
CAL-27 = test: Inhibition of cell proliferation in human CAL-27 cells at 1uM incubated for 72 hrs by MTT assay relative to control; type: functional

CCOCCNC(=O)/C(C)=C\C[C@@]12OC(C)(C)[C@@H]3C[C@@H](C=C4C(=O)c5c(O)c(C/C=C(\C)CCC=C(C)C)c(O)c(CC=C(C)C)c5O[C@]431)C2=O
Activity (HeLa): 70%

NCC(=O)CCC(=O)O [AMINOLEVULINIC ACID]
inhibition at 1 µM (CAL-27): 75.4%
